According to US20250179126A1, “A NOVEL PEPTIDE FROM A PHOTOSYNTHETIC BACERIUM DIRECTLY TARGETS MITOCHONDRIA TO TRIGGER APOPTOSIS IN ADVANCED PROSTATE CANCER CELLS” (priority 2022, published 2025):

How the values were obtained:
[1] = tested on: SKOV-3 ovarian cancer cells; experiment: MTT cell viability assay, SKOV-3 ovarian cancer cells; format: cell-based, human; details: 24 hr
From the text: (§1) Cell viability was detected by MTT assays, and the control (PBS-treated) cells were considered 100% viable. Mean±SE (N=3). *P<0.05, **P<0.01, ***P<0.001.
(§2) Cell lines and culture: Human cancer and noncancer (immortalized and nonimmortalized) cell lines were obtained from the American Type Culture Collection [prostate cancer (PC3, DU145 and LNCaP), normal prostate (CRL11611), breast cancer (MCF-7), ovarian cancer (SK-OV3 adenocarcinoma), lung cancer (A549)]. MDD2 breast cancer cells (p53 dominant-negative) were provided courtesy of Dr Andrei V. Gudkov, Roswell Park Cancer Institute. 20 All cell lines were cultured in MEM-E (Invitrogen) supplemented with 10% heat-inactivated fetal bovine serum (Atlanta Biological, Inc.), 100 units/mL penicillin, and 100 μg/mL streptomycin at 37° C. in 5% CO2.
(§3) Cytotoxicity assay: The MTT assay was performed as we previously described (Cha et al., Cancer Research 2020, 80: 1615-1623).

[2] = tested on: MCF-7 breast cancer cells; experiment: MTT cell viability assay, MCF-7 breast cancer cells; format: cell-based, human; details: MCF-7, 5-100 μM, 24 hr
From the text: as §1, §2, §3

[3] = tested on: normal prostate cells CRL11611; experiment: MTT cell viability assay, normal prostate CRL11611 cells; format: cell-based, human; details: normal prostate CRL11611 (p53+, AR+), 24-72 hr; paclitaxel 1 nM
From the text: FIG. 4A-4D: Effect of peptides on prostate cancer cell lines with differences in p53 and AR expression status. […] Control (PBS)-treated cells were considered to have 100% viability. Mean±SE (N=3).
as §2, §3

[4] = tested on: MDD2 breast cancer cells; experiment: MTT cell viability assay, MDD2 breast cancer cells; format: cell-based, human; details: MDD2 (p53 dominant negative), 0.1-100 μM, 24 hr
Description: as §2, §3

[5] = tested on: LNCaP cells; experiment: Annexin-V apoptosis assay by flow cytometry, LNCaP; format: cell-based, human; details: 48 hr, Ptxl 1 nM, p28 50 μM, aurA/aurB 0.5-50 μM
Description: (§4) FIG. 7A-7D: Determination of apoptotic cell death. Prostate cancer cell lines (7A: LNCaP, 7B: DU145 and 7C: PC3) and normal prostate CRL11611 cells (7D) were exposed to the indicated agents for 48 hr and stained using apoptosis assay kits according to the manufacturer's instructions. The samples were analyzed by flow cytometry. Mean±SE (N=3).
(§5) After 48 hr, annexin-V apoptosis assays (Thermo Fisher Scientific) were conducted to detect apoptotic cells. At least 10,000 cells in each case were analyzed by FACS (RRC, UIC).

[6] = tested on: PC3 cells; experiment: Annexin-V apoptosis assay by flow cytometry, PC3; format: cell-based, human; details: PC3, 48 hr; Ptxl 1 nM, p28 50 μM, aurA/aurB 0.5-50 μM
Description: as §4, §5

[7] = tested on: PC3 cells; experiment: JC-1 mitochondrial membrane potential assay; format: cell-based, human
Description: Cells were stained by using JC-1 Mitochondrial Membrane Potential Assay Kits according to the manufacturer's instructions to measure mitochondrial membrane potential, and fluorescence was measured by flow cytometry. 9B, Caspase-3 is involved in aurB-induced apoptosis. […] The inhibitor was used at the indicated concentrations. Mean±SE (N=3).
JC-1 dye (Invitrogen) was used to determine mitochondrial membrane potential. […] After washing with PBS, trypsinized PC3 cells were incubated with JC-1 dye and analyzed by FACS.

[8] = tested on: spontaneous mammary tumors; format: in vivo, MMTV-PyMT transgenic mice
From the text: FIG. 26A-26H: Azurin-producing P. aeruginosa in human tumors. The azurin-encoding gene (azu) was detected in tumors from patients with breast cancer and melanoma. It was amplified by PCR with P. aeruginosa azu-specific primers and confirmed by DNA sequencing. […] In melanoma (26A), 27.6% (8 of 29) of primary tumors and 5.9% (2 of 34) of metastatic tumors were azu positive (P<0.05). In breast cancer (26B), 22.7% (5 of 22) of primary tumors and 14.3% (2 of 14) of metastatic tumors were azu positive (P>0.05). In addition, frozen tumor samples were processed for immunogold transmission electron microscopy (TEM) by using anti-P. aeruginosa and anti-azurin antibodies. […] Magnification: ×3000. […] Survival analysis of patients with azu-positive vs. azu-negative primary melanoma (26E, P<0.01) and primary breast cancer (26F, P<0.05) tumors. 26G—Hemizvgous MMTV-PyMT transgenic mice were injected with either PBS control or 2.5 mg/kg azurin (intraperitoneally, 3× weekly) for 2 months. The mean+SE values of tumor volume were calculated. h Tumor-free survival curve was generated with the PBS control and 2.5 mg/kg azurin groups of MMTV-PyMT transgenic mice. Median tumor-free survival of the PBS control and azurin-treatment groups was 67 and 72 days, respectively. P=0.015
FIG. 29A-29C: Effect of azurin from P. aeruginosa in a transgenic animal model. 29A. Near-infrared red (NIR) dye-conjugated azurin or PBS was injected i.v. into transgenic mice that spontaneously develop mammary tumors. Twenty-four hours after azurin injection, mice were imaged with a photodynamic eye (PDE) system (left: photographic image, right: NIR fluorescence image at 800 nm). 29B. At the end of the study, the tumors were resected.
Effect of azurin on transgenic mice: Hemizygous MMTV-PyMT (mouse mammary tumor virus-polyoma middle tumor-antigen) female mice were obtained from The Jackson Laboratory. […] In order to reach this level of azurin in mouse (25 g-body weight, 2 ml total blood volume), azurin does at 2.5 mg/kg was determined. Tumor volume and body weights were determined three times weekly. […]

Substance	effect on p53-inactive cancer cells (MTT) ([1]; SKOV3 (p53-null), 0.1-100 μM)	anti-proliferative effect (MTT cell viability) ([1]; SKOV-3, 5-100 μM)	anti-proliferative effect (MTT cell viability) [2]	cytotoxic effect (MTT cell viability) [3]	effect on p53-inactive cancer cells (MTT) [4]	apoptotic cell death [5]	apoptotic cell death [6]	change of mitochondrial membrane potential (JC-1) ([7]; PC3, 1 μM) [%]	change of mitochondrial membrane potential (JC-1) ([7]; PC3, 10 μM) [%]	change of mitochondrial membrane potential (JC-1) ([7]; PC3, 100 μM) [%]	effect on mitochondrial membrane potential (JC-1) ([7]; PC3, 1, 10 and 100 μM)	tumor-free survival ([8]; 2.5 mg/kg azurin i.p. 3× weekly)	tumor growth (tumor volume) ([8]; 2.5 mg/kg azurin i.p. 3× weekly, 2 months)	Median tumor-free survival ([8]; 2.5 mg/kg azurin intraperitoneally, 3× weekly) [days]
LVN GGD DVA AAV NTA AQN NAD ALF VPPP (LVNGGDDVAAAVNTAAQNNADALFVPPP) [aurB]	dose-dependent	clear dose-dependent effects	clear dose-dependent effects	not evident	dose-dependent	induced significant dose-dependent apoptosis	induced significant dose-dependent apoptosis	17	21	32	dose-dependently increased			
azurin: 14 kDa periplasmic copper protein of 128 amino acids from P. aeruginosa; purified recombinant												significantly extended	significantly inhibited	72
